Assay results: patent publication US8153385B2, “Target protein and target gene in drug designing and screening method” (Reverse Proteomics Research Institute Co., Ltd., priority 2004, dated 2012)

Molecular target: T1, FLJ13397 clone-derived protein (CARP) (Homo sapiens, UniProt Q9H8M7)
T1 construct: A human full-length cDNA clone was expressed as a protein with an N-terminal His tag; His tag (pDEST17 Gateway vector) (N); made in house; host or cells: Escherichia coli BL21star(DE3)pLysS
T1 sequence (Q9H8M7 1-445): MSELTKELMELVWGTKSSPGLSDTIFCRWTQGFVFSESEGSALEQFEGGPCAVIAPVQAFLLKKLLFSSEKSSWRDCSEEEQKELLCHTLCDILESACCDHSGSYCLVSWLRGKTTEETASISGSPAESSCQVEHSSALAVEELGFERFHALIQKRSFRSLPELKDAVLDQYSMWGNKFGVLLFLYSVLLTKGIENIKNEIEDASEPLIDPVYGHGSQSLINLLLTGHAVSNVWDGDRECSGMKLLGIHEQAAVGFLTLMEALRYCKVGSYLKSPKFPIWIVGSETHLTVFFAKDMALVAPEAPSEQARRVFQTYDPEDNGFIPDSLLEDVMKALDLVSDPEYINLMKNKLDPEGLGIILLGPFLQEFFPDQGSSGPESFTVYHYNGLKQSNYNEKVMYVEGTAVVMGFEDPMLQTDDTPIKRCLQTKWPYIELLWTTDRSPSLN
Assay: SEC/MS (size exclusion chromatography / mass analysis) interaction analysis between FLJ13397 clone-derived protein and compounds
Type: binding
Description: BP-reaction was performed on human full-length cDNA clone and the cloning vector Gateway pDONR201 by the PCR cloning method using the Invitrogen Gateway system to yield an entry clone. LR-reaction was performed on this entry clone with the destination vector pDEST17 (Gateway System) and LR Clonase at 25° C. for 60 minutes to yield an expression plasmid. Escherichia coli competent cell BL21star(DE3)pLysS were transformed with this expression plasmid, a clone incorporating the expression vector was selected, and a frozen stock was prepared. The transformant was inoculated into LB medium and precultured, after which it was transferred into SB medium and cultured to induce the expression by IPTG, and the cells were stored frozen.
A human full-length cDNA clone was expressed as a protein with an N-terminal His tag. This clone was purified using BioRobot 8000 (Qiagen) or ACTA Crystal (Amersham). […] In the purification with ACTA Crystal, affinity purification using a HisTrap HP column was followed by gel filtration purification using the Gel Filtration Column HiLoad 16/60 or a 10/30 Superdex 75 prep grade column. The purified fraction was used for interaction analysis after being subjected to SDS-PAGE to verify the estimated molecular weight and purity.
To analyze the interactions between commonly used drugs and proteins expressed from human full-length cDNA clones while keeping both the proteins and the compounds in non-modified, non-immobilized state, size exclusion chromatography (SEC) and mass analysis were used in combination (FIGS. 1 and 2). The specific procedures are shown below.
The compound-protein mixture prepared in step 1 was subjected to chromatography using an SEC column, the compound and the protein were separated by SEC, and the bound compound or compound that interacted with the protein in the protein fraction was analyzed using a mass analyzer.
Protein concentrations were measured using BCA Protein Assay (PIERCE), in consideration of the purity calculated by SDS-PAGE.
Mass analysis was performed using LCQ DECA XP (Thermoelectron) or Q-TOFmicro (Micromass), equipped with an ESI probe. The LC pump used was Agilent 1100 (Yokogawa Analytical Systems), and the autosampler used was HTC-PAL (CTC Analytics) equipped with a cooling stacker.
In the SEC method using a 384-well spin column, Unifilter 100 (Whatman), packed with 10 μL (dry volume) of Bio-Gel P6 (BIO-RAD) and swollen with milliQ water, was used as the SEC column. […] The SEC spin column was mounted on an acetonitrile-aliquoted 384-well U-bottom plate and centrifuged; the SEC spin column filtrate, which is a protein fraction, was retrieved in 50% acetonitrile. The protein precipitate produced by the acetonitrile was removed via centrifugation and filtration for protein removal; the resulting filtrate was concentrated by centrifugation and re-dissolved in 10 μL of 50% methanol to obtain a mass analysis sample. The mobile phase supplied to the mass analyzer was 0.1% formic acid/50% methanol solution in the positive ion mode, and 0.1% ammonia/50% methanol solution in the negative ion mode; these mobile phases were used at a flow rate of 40 μL/min. 2-μL of mass analysis samples were injected using an autosampler at 2-Minute intervals; the mass spectral intensity of the compound was measured to obtain the spectral intensity of the pharmaceutical compound contained in the SEC spin column filtrate (protein fraction eluted from SEC).

[1] = compound 1 μM, protein 0 μM (protein-free reference)
[2] = compound 1 μM, protein 23.75 μM
[3] = compound 10 μM, protein 0 μM (protein-free reference)
[4] = compound 10 μM, protein 23.75 μM
[5] = compound 10 μM, protein 47.5 μM
[6] = compound 100 μM, protein 0 μM (protein-free reference)
[7] = compound 100 μM, protein 23.75 μM
[8] = compound 100 μM, protein 47.5 μM
[9] = compound 250 μM, protein 0 μM (protein-free reference)
[10] = compound 250 μM, protein 23.75 μM
[11] = compound 250 μM, protein 47.5 μM

SMILES | spectrum intensity of the extracted mass range (compound in SEC spin column filtrate) [1] | spectrum intensity of the extracted mass range (compound in SEC spin column filtrate) [2] | spectrum intensity of the extracted mass range (compound in SEC spin column filtrate) (compound 1 μM, protein 47.5 μM) | spectrum intensity of the extracted mass range (compound in SEC spin column filtrate) [3] | spectrum intensity of the extracted mass range (compound in SEC spin column filtrate) [4] | spectrum intensity of the extracted mass range (compound in SEC spin column filtrate) [5] | spectrum intensity of the extracted mass range (compound in SEC spin column filtrate) [6] | spectrum intensity of the extracted mass range (compound in SEC spin column filtrate) [7] | spectrum intensity of the extracted mass range (compound in SEC spin column filtrate) [8] | spectrum intensity of the extracted mass range (compound in SEC spin column filtrate) [9] | spectrum intensity of the extracted mass range (compound in SEC spin column filtrate) [10] | spectrum intensity of the extracted mass range (compound in SEC spin column filtrate) [11]
COC(=O)Nc1nc2ccc([S+]([O-])c3ccccc3)cc2[nH]1 (stereo not drawn) [Oxfendazole] | 23723676 | 29471243 | 35025210 | 28662280 | 41004899 | 42911925 | 106348780 | 160312456 | 180803127 | 128622627 | 264420112 | 506800735
OCCOCCN1CCN(C(c2ccccc2)c2ccc(Cl)cc2)CC1 (stereo not drawn) [Hydroxyzine] | 112855827 | 126033923 | 89527484 | 134387910 | 108540593 | 115214088 | 300477422 | 567712336 | 554713461 | 922692583 | 919366054 | 1073610880
COC(=O)Nc1nc2ccccc2[nH]1 [Carbendazim] | 20852664 | 16443963 | 24660680 | 22203544 | 21673683 | 32996198 | 20562919 | 35342827 | 65044479 | 34177767 | 129995989 | 148437211
COC(=O)Nc1nc2ccc(S(=O)(=O)c3ccccc3)cc2[nH]1 [Fenbendazole Sulfone] | 4524987 | 2681468 | 2967134 | 9471873 | 13569838 | 12568548 | 4055561 | 63176239 | 88590858 | 5180253 | 165761033 | 286102392
